{"source": "paper PMC10743895", "about": "“Synthesis of 1,3,4-Thiadiazole Derivatives and Their Anticancer Evaluation” (International Journal of Molecular Sciences, 2023)", "key": {"[1]": {"tested_on": "MCF-7 cells", "experiment": "Apoptosis assay (Annexin V-FITC/PI flow cytometry), MCF-7", "type": "cell-based, human", "experimental": "(§1) Two reference concentrations, 5 μM and 50 μM, and two distinct treatment durations, 24 and 48 h, were employed to assess the influence of the test compounds on apoptosis in both normal and tumor cells. […] HUVEC cells were exposed to both drugs.\n(§2) The apoptosis assay was performed according to the manufacturer’s instructions using the Annexin V-FITC kit (BD Biosciences, San Jose, CA, USA). Cells untreated and treated with the experimental compound were suspended in a cold binding buffer. The percentages of apoptotic cells were determined by double staining with Annexin V-FITC/PI. In each tube was added 400 μL of Annexin V binding buffer and the 5000 cells/sample for 15 min in the dark at room temperature. The cells were analyzed using a FACSCantoII flow-cytometer (Becton Dickinson—BD, La Jolla, CA, USA). The analysis was performed using DIVA 6.2 software to discriminate viable cells (FITC-PI-) from necrotic cells (FITC + PI+), and early apoptosis (FITC + PI) from late apoptosis."}, "[2]": {"tested_on": "HUVEC cells", "experiment": "Apoptosis assay (Annexin V-FITC/PI flow cytometry), HUVEC", "type": "cell-based, human", "experimental": "as §1, §2"}, "[3]": {"tested_on": "HUVEC normal cells", "experiment": "MTS cell viability assay, HUVEC normal cells", "type": "cell-based, human", "conditions": "Homo sapiens, HUVEC", "experimental": "(§3) To determine the optimal working concentration, dose-effect curves were made for each compound in the range of concentrations between 6.25 and 400 μM.\n(§4) LoVo (human colorectal adenocarcinoma) human cancer cell line and HUVEC normal cells were purchased from American Type Culture Collection (ATCC). The MCF-7 human breast adenocarcinoma cell line was provided from European Collection of Authenticated Cell Cultures (ECACC). HUVEC normal cells, isolated from the vascular endothelium of an umbilical cord, were used as a reference. Adherent cells were maintained in culture in Dulbecco’s modified Eagle medium/nutrient mixture F-12 (DMEM:F12) with 2 mM of L-glutamine, 10% fetal bovine serum, 100 units/mL of penicillin and 100 μg/mL of streptomycin, and incubated at 37 °C in a 5% CO2-humidified atmosphere. After 24 h, adherent cells were treated with different concentrations of the compounds for different periods of time. Cis-Pt and DOX, conventional oncology drugs used in cancer treatments, can be used as a positive control of the experiments. […] Then, cells were detached with a nonenzymatic solution of phosphate-buffered saline (PBS)/1 mM EDTA and washed twice in PBS.\n(§5) The study utilized a colorimetric assay based on MTS (chemically known as 3-(4,5-dimethylthiazol-2-yl)-5-(3-carboxymethoxyphenyl)-2-(4-sulfophenyl)-2H-tetrazolium) and called CellTiter 96 Aqueous One Solution Cell proliferation Assay (Promega, Madison, WI, USA) in order to measure cell viability. The assay was performed in triplicate in 96-well microtiter plates with a flat bottom (Falcon). A number of 1 × 10^4 cells/well were cultured in 100 μL for 24 h, culture supernatants were discarded, and then cells were treated for 24 and 48 h with increasing concentrations of the tested compound. After the end of the incubation time, 20 μL of the reagent containing MTS and PES (phenazine ethosulfate) was added in each well. Plates were incubated for 4 h at 37 °C, with mild agitation every 15 min. The reduction in the tetrazolium compound to formazan was spectrophotometrically measured at λ = 492 nm using a Dynex plate reader (DYNEX Technologies MRS, Chantilly, VA, USA). The percentage of viability compared to untreated cells (considered 100% viable) was calculated with the formula:(1) Cell viability (%)=Absorbance treated cells−Absorbance culture medium/Absorbance untreated cells−Absorbance culture medium×100\n(§6) The cell viability compared was calculated and data were expressed as a mean ± standard deviation (SD) of the experiments and obtained in triplicate (n = 3)."}, "[4]": {"tested_on": "LoVo cells", "experiment": "MTS cell viability assay, LoVo cells", "type": "cell-based, human", "conditions": "Homo sapiens, LoVo", "experimental": "as §3, §4, §5, §6"}, "[5]": {"tested_on": "MCF-7", "parameters": "method as in earlier work", "conditions": "ref 16 (Yang et al.); cited from earlier work"}, "[6]": {"tested_on": "Daphnia magna", "experiment": "Daphnia magna toxicity assay", "type": "in vivo", "conditions": "up to 200 µM", "experimental": "(§7) The Daphnia magna bioassay results are presented in Table 3 as the maximum average percentage of lethality (L%) registered for each compound and the median lethal concentration (LC50) if the values permitted its calculation.\n(§8) Daphnia magna Straus is parthenogenetically maintained at ‘Carol Davila’ University’s Department of Pharmaceutical Botany and Cell Biology. The culture was consistently maintained at a temperature of 25 °C, with a 16-h light and 8-h dark photoperiod. To ensure consistency, young daphnids were carefully chosen based on their size and kept in an artificial medium for 24 h prior to the assessment. The bioassay involved 10 daphnids per replicate, using tissue culture plates with 12 wells from Greiner Bio-One. The experimental procedure followed the protocol described in previous studies.\n(§9) Each determination was carried out in duplicate."}, "[7]": {"experiment": "Daphnia magna toxicity assay", "type": "in vivo", "conditions": "Daphnia magna, in vivo; 48 h", "experimental": "as §7, §8, §9"}, "[8]": {"tested_on": "LoVo cells", "experiment": "Apoptosis assay (Annexin V-FITC/PI flow cytometry), LoVo", "type": "cell-based, human", "experimental": "as §1, §2"}, "[9]": {"tested_on": "MCF-7 cells", "experiment": "MTS cell viability assay, MCF-7 cells", "type": "cell-based, human", "conditions": "Homo sapiens", "experimental": "as §3, §4, §5, §6"}}, "note": "Like-named read-outs stand apart in the source and are kept apart here."}
{"smiles": "O=C(Nc1nnc(-c2ccccc2)s1)c1ccccc1", "note": "[3b, N-(5-Phenyl-1,3,4-thiadiazol-2-yl)benzamide]", "values": [{"measurement": "Total Apoptosis (%) 24 h MCF-7", "setting": "[1]; 5 μM", "result": 19.2, "unit": "%"}, {"measurement": "Total Apoptosis (%) 48 h MCF-7", "setting": "[1]; 5 μM", "result": 43.7, "unit": "%"}, {"measurement": "Total Apoptosis (%) 24 h MCF-7", "setting": "[1]; 50 μM", "result": 16.4, "unit": "%"}, {"measurement": "Total Apoptosis (%) 48 h MCF-7", "setting": "[1]; 50 μM", "result": 41.3, "unit": "%"}, {"measurement": "Total Apoptosis (%) 24 h HUVEC", "setting": "[2]; 5 μM", "result": 17.8, "unit": "%"}, {"measurement": "Total Apoptosis (%) 48 h HUVEC", "setting": "[2]; 5 μM", "result": 15.3, "unit": "%"}, {"measurement": "Total Apoptosis (%) 24 h HUVEC", "setting": "[2]; 50 μM", "result": 17.0, "unit": "%"}, {"measurement": "Total Apoptosis (%) 48 h HUVEC", "setting": "[2]; 50 μM", "result": 15.9, "unit": "%"}, {"measurement": "IC50", "setting": "[3]; read-out: IC50 (48 h) HUVEC, 48 h exposure", "result": "> 400", "unit": "µM"}, {"measurement": "IC50", "setting": "[3]; 24 h exposure, read-out: IC50 (24 h) HUVEC", "result": "> 400", "unit": "µM"}, {"measurement": "IC50", "setting": "[4]; read-out: IC50 (48 h) LoVo, 48 h exposure", "result": 62.5, "unit": "µM"}, {"measurement": "viability at 200 µM", "setting": "[4]; 24 h, 200 μM, read-out: viability of LoVo tumor cells", "result": "< 50", "unit": "%"}, {"measurement": "IC50", "setting": "[4]; 24 h exposure, read-out: IC50 (24 h) LoVo", "result": 174, "unit": "µM"}, {"measurement": "IC50", "setting": "[5]", "result": 5.87, "unit": "µM"}, {"measurement": "Maximum Average L% (lethality)", "setting": "[6]; 24 h", "result": 5, "unit": "%"}, {"measurement": "Maximum Average L% (lethality)", "setting": "[6]; 48 h", "result": 45, "unit": "%"}, {"measurement": "LC50 at 48 h", "setting": "[7]", "result": 228, "unit": "µM"}, {"measurement": "Total Apoptosis (%) 24 h LoVo", "setting": "[8]; 5 μM", "result": 12.5, "unit": "%"}, {"measurement": "Total Apoptosis (%) 48 h LoVo", "setting": "[8]; 5 μM", "result": 22.2, "unit": "%"}, {"measurement": "Total Apoptosis (%) 24 h LoVo", "setting": "[8]; 50 μM", "result": 12.6, "unit": "%"}, {"measurement": "Total Apoptosis (%) 48 h LoVo", "setting": "[8]; 50 μM", "result": 20.9, "unit": "%"}, {"measurement": "IC50", "setting": "[9]; MCF7, read-out: IC50 (48 h) MCF-7, 48 h exposure", "result": "> 400", "unit": "µM"}, {"measurement": "IC50", "setting": "[9]; MCF7, 24 h exposure, read-out: IC50 (24 h) MCF-7", "result": "> 400", "unit": "µM"}]}
